This note sets out measurements from ChEMBL document CHEMBL1201862, “PubChem BioAssay data set” (2004).

Each structure is given as a SMILES string. Activity calls are given as the source filed them.

Test system in one assay: not listed separately
Briefly: A Cell Based Secondary Assay To Explore Cytotoxicity of Compounds that Sensitize Mycobacterium Tuberculosis to Beta-Lactam Antibiotics. The format is functional.
Details: not given
One may read the CC50 as the concentration at which the toxic effect on the cells reaches its halfway point. For the compound `Cc1ccc(O)c(-c2cc(-c3ccccc3F)[nH]n2)c1`, the CC50 was > 40 µM (active).

For the next assay, the target named is T1, Sentrin-specific protease 8 (Homo sapiens, UniProt Q96LD8).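 Also: luminescence read-out of SENP8 inhibition, dose-response confirmation following an ultra-high-throughput screen.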
T1 sequence (Q96LD8 whole entry): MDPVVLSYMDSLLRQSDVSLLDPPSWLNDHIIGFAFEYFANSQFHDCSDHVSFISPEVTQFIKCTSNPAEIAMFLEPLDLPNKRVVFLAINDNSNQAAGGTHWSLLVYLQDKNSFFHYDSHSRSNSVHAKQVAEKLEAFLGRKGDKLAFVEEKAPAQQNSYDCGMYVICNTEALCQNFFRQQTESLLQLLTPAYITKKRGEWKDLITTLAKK
Test: not given
Details: not given
It is filed as functional.
Usually IC50 stands for the concentration needed to halve the response being measured. For `Cc1ccc(O)c(-c2cc(-c3ccccc3F)[nH]n2)c1`, the IC50 was 4.59 µM (active).
Same read-out and setting: in the case of `NC(=NOC(=O)c1ccc(Cl)cc1Cl)c1ccc(Cl)cc1` it was > 100 µM (inactive).
As to `C=C(C)c1sc(-c2ccc(Cl)cc2)nc1C`, the IC50 is 69.1 µM (active).
Same read-out and setting: in the case of `N=C1/C(=N\Nc2ccccc2F)C(=O)NN1c1ccccc1` it was > 100 µM (inactive); in that of `Nc1nc2ccccc2n1/N=C/c1ccc(Br)cc1`, 5.66 µM (active).

A further assay has as its target T2, Rac GTPase-activating protein 1 (Homo sapiens, UniProt Q9H0H5).
T2 sequence (Q9H0H5 whole entry): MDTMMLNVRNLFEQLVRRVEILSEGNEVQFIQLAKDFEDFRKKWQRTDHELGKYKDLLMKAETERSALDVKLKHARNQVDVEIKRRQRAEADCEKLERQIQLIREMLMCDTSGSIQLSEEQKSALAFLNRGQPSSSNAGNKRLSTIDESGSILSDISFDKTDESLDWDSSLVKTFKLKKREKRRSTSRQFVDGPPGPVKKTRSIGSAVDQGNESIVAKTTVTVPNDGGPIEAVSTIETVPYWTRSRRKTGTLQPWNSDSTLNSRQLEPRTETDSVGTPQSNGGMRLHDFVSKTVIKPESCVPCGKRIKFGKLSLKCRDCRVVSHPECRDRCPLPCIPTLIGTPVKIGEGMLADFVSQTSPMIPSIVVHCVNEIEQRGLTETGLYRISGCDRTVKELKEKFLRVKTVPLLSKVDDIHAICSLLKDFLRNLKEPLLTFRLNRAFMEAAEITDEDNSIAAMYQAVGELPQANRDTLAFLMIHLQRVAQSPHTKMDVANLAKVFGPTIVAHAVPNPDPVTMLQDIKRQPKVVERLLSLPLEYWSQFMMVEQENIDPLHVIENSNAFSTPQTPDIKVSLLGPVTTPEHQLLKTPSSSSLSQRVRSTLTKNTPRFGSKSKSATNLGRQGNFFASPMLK
Kind of assay: MgcRacGAP GTPase-activating activity inhibitors, confirmation, biochemical, ADP Hunter fluorescence, primary and confirmatory (AID 624330).
Details: not given
It is filed as functional.
`COc1ccc(/C=N\NC(=O)c2ccc(O)nn2)cc1O`: the IC50 is 26.5 µM (active).

A further assay deals with T3, Caspase-3 (Homo sapiens, UniProt P42574).
T3 sequence (P42574 whole entry): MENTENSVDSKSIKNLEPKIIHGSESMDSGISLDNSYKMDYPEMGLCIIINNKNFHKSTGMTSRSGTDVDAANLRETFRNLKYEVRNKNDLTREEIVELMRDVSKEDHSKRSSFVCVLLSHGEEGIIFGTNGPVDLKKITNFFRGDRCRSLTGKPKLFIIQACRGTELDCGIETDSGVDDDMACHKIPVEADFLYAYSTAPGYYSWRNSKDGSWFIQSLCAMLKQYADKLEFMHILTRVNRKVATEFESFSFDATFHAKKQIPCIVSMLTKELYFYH
Test: not given
It is filed as functional.
Details: not given
For the compound `Cc1ccc(O)c(-c2cc(-c3ccccc3F)[nH]n2)c1`, the IC50 is 31.9 µM (active).
For `NC(=NOC(=O)c1ccc(Cl)cc1Cl)c1ccc(Cl)cc1`, the IC50 was 35.6 µM (active).
For `C=C(C)c1sc(-c2ccc(Cl)cc2)nc1C`, the IC50 was 13.4 µM (active).
Turning to `N=C1/C(=N\Nc2ccccc2F)C(=O)NN1c1ccccc1`, the IC50 was 16.4 µM (active).
Take `Nc1nc2ccccc2n1/N=C/c1ccc(Br)cc1`: the IC50 is 16.1 µM (active).

Another assay addresses T4, Sentrin-specific protease 6 (Homo sapiens, UniProt Q9GZR1).
T4 sequence (Q9GZR1 whole entry): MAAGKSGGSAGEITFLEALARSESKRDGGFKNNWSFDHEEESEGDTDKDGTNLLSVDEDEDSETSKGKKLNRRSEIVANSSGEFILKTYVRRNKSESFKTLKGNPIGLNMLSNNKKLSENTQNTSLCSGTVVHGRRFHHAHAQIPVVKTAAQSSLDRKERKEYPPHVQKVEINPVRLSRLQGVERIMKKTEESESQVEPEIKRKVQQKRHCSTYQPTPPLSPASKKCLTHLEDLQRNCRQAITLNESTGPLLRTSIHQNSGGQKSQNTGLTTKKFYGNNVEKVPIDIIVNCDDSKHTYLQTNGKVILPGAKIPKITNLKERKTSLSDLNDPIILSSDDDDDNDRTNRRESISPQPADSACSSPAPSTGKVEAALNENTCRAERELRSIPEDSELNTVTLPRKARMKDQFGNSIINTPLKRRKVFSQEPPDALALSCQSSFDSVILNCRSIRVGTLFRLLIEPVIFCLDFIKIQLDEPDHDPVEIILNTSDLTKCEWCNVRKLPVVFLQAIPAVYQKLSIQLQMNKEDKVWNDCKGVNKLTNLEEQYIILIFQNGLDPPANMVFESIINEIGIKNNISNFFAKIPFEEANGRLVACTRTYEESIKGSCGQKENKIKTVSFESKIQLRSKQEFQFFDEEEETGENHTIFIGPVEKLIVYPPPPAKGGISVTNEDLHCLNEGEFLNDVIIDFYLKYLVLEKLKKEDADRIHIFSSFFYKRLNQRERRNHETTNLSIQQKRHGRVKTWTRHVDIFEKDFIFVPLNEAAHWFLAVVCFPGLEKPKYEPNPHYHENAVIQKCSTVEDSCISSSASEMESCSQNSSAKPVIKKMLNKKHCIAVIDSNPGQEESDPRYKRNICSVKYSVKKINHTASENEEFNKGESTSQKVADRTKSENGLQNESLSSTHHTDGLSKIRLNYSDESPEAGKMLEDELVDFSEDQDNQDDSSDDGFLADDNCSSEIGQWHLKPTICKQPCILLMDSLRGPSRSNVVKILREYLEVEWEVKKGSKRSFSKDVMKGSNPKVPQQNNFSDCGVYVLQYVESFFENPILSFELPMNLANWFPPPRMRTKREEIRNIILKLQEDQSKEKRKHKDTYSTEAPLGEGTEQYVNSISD
Test: not given
The format is functional.
Details: not given
On to `Cc1ccc(O)c(-c2cc(-c3ccccc3F)[nH]n2)c1`, for which the IC50 was 21.9 µM (active).
On to `NC(=NOC(=O)c1ccc(Cl)cc1Cl)c1ccc(Cl)cc1`, for which the IC50 was > 100 µM (inactive).
The same measure, in the same setting: for `C=C(C)c1sc(-c2ccc(Cl)cc2)nc1C` the value was 21.4 µM (active); for `N=C1/C(=N\Nc2ccccc2F)C(=O)NN1c1ccccc1`, 2.09 µM (active).
On the same count and under the same terms, in the case of `Nc1nc2ccccc2n1/N=C/c1ccc(Br)cc1` it was 5.96 µM (active).

Another assay has as its system SN12K1. Kind of assay: cells. It is filed as functional. The note with it: Homo sapiens.
As usually defined, the GI50 is the concentration at which growth is held to half of that of the control. `Nc1ccn(C2C=C(CO)C(O)C2O)c(=O)c1` (centres undefined): the GI50 was > 625 µM (inactive).

A further assay deals with T5, Sentrin-specific protease 7 (Homo sapiens, UniProt Q9BQF6).
T5 sequence (Q9BQF6 whole entry): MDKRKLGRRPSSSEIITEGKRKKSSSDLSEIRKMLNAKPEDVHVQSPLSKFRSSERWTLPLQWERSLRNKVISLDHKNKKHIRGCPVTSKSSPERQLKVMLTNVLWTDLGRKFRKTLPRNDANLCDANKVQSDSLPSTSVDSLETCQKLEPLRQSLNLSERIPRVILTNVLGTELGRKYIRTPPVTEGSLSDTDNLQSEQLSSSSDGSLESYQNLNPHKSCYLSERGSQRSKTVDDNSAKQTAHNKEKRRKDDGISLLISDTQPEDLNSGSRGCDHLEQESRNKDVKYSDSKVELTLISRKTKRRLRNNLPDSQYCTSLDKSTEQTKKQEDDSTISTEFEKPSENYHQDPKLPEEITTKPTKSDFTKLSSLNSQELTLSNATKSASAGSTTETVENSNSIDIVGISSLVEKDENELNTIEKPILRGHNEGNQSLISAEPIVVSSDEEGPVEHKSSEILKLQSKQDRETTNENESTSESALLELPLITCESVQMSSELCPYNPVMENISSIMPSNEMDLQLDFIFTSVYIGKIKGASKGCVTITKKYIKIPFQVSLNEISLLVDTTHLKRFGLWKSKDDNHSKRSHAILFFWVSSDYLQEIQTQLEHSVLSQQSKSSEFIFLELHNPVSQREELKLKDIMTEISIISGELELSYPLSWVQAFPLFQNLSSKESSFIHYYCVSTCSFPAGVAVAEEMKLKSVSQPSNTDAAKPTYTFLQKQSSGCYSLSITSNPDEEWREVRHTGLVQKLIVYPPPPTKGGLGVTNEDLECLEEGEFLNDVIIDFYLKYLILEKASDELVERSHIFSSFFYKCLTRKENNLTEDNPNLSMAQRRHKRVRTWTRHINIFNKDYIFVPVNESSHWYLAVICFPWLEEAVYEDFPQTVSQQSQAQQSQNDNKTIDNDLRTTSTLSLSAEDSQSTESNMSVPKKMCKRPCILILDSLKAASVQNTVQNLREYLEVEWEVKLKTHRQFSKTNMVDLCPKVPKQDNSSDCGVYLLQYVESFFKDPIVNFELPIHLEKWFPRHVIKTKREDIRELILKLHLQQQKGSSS
Test: not given
It is filed as functional.
Details: not given
For the compound `Cc1ccc(O)c(-c2cc(-c3ccccc3F)[nH]n2)c1`, the IC50 was 3.4 µM (active).
On to `NC(=NOC(=O)c1ccc(Cl)cc1Cl)c1ccc(Cl)cc1`, for which the concentration for half-maximal inhibition (IC50) is 9.34 µM (active).
Take `C=C(C)c1sc(-c2ccc(Cl)cc2)nc1C`: the IC50 is 6.67 µM (active).
On the same count and under the same terms, in the case of `N=C1/C(=N\Nc2ccccc2F)C(=O)NN1c1ccccc1` it was 2.52 µM (active).
The same measure, in the same setting: in the case of `Nc1nc2ccccc2n1/N=C/c1ccc(Br)cc1` it was 4.21 µM (active).

For a further assay, the target named is Large T antigen (Simian virus 40, UniProt P03070).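 Also: Confirmatory-stage PubChem screen for compounds that inhibit SV40 T antigen.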
Chain of Large T antigen (P03070 whole entry): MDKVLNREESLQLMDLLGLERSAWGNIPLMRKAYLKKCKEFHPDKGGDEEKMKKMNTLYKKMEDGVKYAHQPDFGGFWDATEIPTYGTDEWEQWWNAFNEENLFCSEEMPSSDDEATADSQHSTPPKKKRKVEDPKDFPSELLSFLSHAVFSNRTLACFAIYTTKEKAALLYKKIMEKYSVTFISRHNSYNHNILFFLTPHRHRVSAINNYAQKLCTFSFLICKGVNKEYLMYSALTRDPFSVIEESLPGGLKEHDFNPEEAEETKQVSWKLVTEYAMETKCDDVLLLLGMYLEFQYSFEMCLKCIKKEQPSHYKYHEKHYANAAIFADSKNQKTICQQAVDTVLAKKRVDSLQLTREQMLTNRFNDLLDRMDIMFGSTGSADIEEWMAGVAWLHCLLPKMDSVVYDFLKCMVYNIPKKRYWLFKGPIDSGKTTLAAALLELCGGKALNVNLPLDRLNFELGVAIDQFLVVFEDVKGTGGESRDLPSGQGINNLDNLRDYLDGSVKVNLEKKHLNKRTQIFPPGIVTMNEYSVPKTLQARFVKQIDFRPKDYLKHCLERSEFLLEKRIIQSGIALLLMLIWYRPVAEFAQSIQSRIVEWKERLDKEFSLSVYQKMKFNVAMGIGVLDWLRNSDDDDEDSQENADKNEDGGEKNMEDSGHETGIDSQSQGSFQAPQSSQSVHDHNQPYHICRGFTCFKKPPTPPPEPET
Test: not given
Details: not given
The format is functional, Betapolyomavirus macacae.
On to `CCOC(=O)C1=C(C)N(c2ccccc2)C(=O)/C1=C\c1ccc(O)c(OC)c1`, for which the IC50 was 47.1 µM (active).
On the same count and under the same terms, for `COc1ccc(-c2nc(O)c3cnccn23)cc1` the value was 24.2 µM (active); for `CCNc1nc(NCC)nc(N/N=C/c2ccc(O)c(OC)c2)n1`, 11 µM (active).
Turning to `COc1ccc(/C=N\NC(=O)c2ccc(O)nn2)cc1O`, the 50% inhibitory concentration (IC50) is 14.3 µM (active).

Test system in the next assay: not listed separately
Kind of assay: HEp-2 cell cytotoxicity, dose response, cytotoxicity control for RSV inhibitor project, HTS (AID 2410). It is filed as functional. Particulars: human respiratory syncytial virus.
As for `COc1ccc(Nc2nc(-c3cccs3)nc3ccccc23)c(OC)c1`, the CC50 was 32.9 µM (active).
As to `CSc1nc(C(=O)N2CCc3c([nH]c4ccccc34)C2c2ccccn2)cs1` (centres undefined), the CC50 is 30.1 µM (active).
For the compound `CCCOC(=O)c1cc(-c2ccc(C=O)o2)ccc1Cl`, the CC50 is 36.9 µM (active).
On the same count and under the same terms, in the case of `Cc1ccc(-n2nc3c(=O)n(CCCC(=O)NCc4cccc(F)c4)nc(C)c3c2C)cc1` it was > 50 µM (active); in that of `CCOC(=O)C1C(=O)C=C(c2ccc(C)cc2)CC1c1ccccc1` (centres undefined), 35.4 µM (active); in that of `CC(C)(c1cc(Br)c(O)c(Br)c1)c1cc(Br)c(O)c(Br)c1`, 24.9 µM (active).
Turning to `CCc1nnc(S)n1/N=C/c1ccc(N(C)c2ccccc2)cc1`, the CC50 was 28.1 µM (active).
